# Assay results published in patent publication US20260207615A1, “FLUOROPYRIDOPYRIMIDINE AND FLUOROQUINAZOLINE DERIVATIES AND METHODS OF USE THEREOF” (Frontier Medicines Corporation, priority 2022, published 2026).
# Target: T1, KRAS G12C and cRAF interaction (Homo sapiens, UniProt P01116, C118S/C51S/C80L/G12C)
# T1 construct: truncated version comprising amino acids 1-169
# Test: Inhibition of KRAS G12C and cRAF binding (AlphaScreen)
# Type: biochemical
# Conditions: KRAS G12C (Cys-light, aa 1-169) preloaded with GMPPNP, cRaf RBD (aa 50-131), 2 hours incubation
# Summary of the method: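 Biotin-AviTag KRAS G12C (Cys-light C51S/C80L/C118S, aa 1-169, GMPPNP-loaded; 0.5 nM final)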
# T1 sequence (P01116 1-169 isoform P01116-2 G12C/C51S/C80L/C118S): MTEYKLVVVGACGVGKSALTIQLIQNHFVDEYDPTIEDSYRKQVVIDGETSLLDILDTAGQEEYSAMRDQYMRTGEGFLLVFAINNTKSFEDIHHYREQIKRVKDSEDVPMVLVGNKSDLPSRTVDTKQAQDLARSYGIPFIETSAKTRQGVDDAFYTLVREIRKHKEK
row,IC50 [nM],Structure (SMILES)
1,100 to 500,"CC(C#CC(=O)N1CCN(c2nc(OC[C@@]34CCCN3C[C@H](F)C4)nc3c(F)c(-c4cccc5cccc(Cl)c45)ncc23)CC12COC2)N1CCOCC1 (stereo partly drawn) [Example 40, 1-(8-(7-(8-chloronaphthalen-1-yl)-8-fluoro-2-(((2R,7aS)-2-fluorotetrahydro-1H-pyrrolizin-7a(5H)-yl)methoxy)pyrido[4,3-d]pyrimidin-4-yl)-2-oxa-5,8-diazaspiro[3.5]nonan-5-yl)-4-morpholinopent-2-yn-1-one]"
2,< 10,"Cc1nccc(/C=C/C(=O)N2CCN(c3nc(OC[C@@]45CCCN4C[C@H](F)C5)nc4c(F)c(-c5cc(O)cc(Cl)c5C5CC5)ncc34)CC23COC3)n1 [Example 41, (E)-1-(8-(7-(3-chloro-2-cyclopropyl-5-hydroxyphenyl)-8-fluoro-2-(((2R,7aS)-2-fluorotetrahydro-1H-pyrrolizin-7a(5H)-yl)methoxy)pyrido[4,3-d]pyrimidin-4-yl)-2-oxa-5,8-diazaspiro[3.5]nonan-5-yl)-3-(2-methylpyrimidin-4-yl) prop-2-en-1-one]"
3,< 10,"C#Cc1c(F)ccc2cccc(-c3ncc4c(N5CCN(C(=O)/C=C/CN6C[C@@H]7C[C@H]6CO7)C6(COC6)C5)nc(OC[C@@]56CCCN5C[C@H](F)C6)nc4c3F)c12 [Example 42, (E)-4-((1S,4S)-2-oxa-5-azabicyclo[2.2.1]heptan-5-yl)-1-(8-(7-(8-ethynyl-7-fluoronaphthalen-1-yl)-8-fluoro-2-(((2R,7aS)-2-fluorotetrahydro-1H-pyrrolizin-7a(5H)-yl)methoxy)pyrido[4,3-d]pyrimidin-4-yl)-2-oxa-5,8-diazaspiro[3.5]nonan-5-yl) but-2-en-1-one]"
4,10 to 100,"C#Cc1c(F)ccc2cccc(-c3ncc4c(N5CCN(C(=O)/C=C/CN6CC[C@@H](OC)C6)C6(COC6)C5)nc(OC[C@@]56CCCN5C[C@H](F)C6)nc4c3F)c12 [Example 43, (E)-1-(8-(7-(8-ethynyl-7-fluoronaphthalen-1-yl)-8-fluoro-2-(((2R,7aS)-2-fluorotetrahydro-1H-pyrrolizin-7a(5H)-yl)methoxy)pyrido[4,3-d]pyrimidin-4-yl)-2-oxa-5,8-diazaspiro[3.5]nonan-5-yl)-4-((R)-3-methoxypyrrolidin-1-yl) but-2-en-1-one]"
5,< 10,"C#Cc1c(F)ccc2cccc(-c3ncc4c(N5CCN(C(=O)/C=C/CN6CC[C@@H](F)C6)C6(COC6)C5)nc(OC[C@@]56CCCN5C[C@H](F)C6)nc4c3F)c12 [Example 44, (E)-1-(8-(7-(8-ethynyl-7-fluoronaphthalen-1-yl)-8-fluoro-2-(((2R,7aS)-2-fluorotetrahydro-1H-pyrrolizin-7a(5H)-yl)methoxy)pyrido[4,3-d]pyrimidin-4-yl)-2-oxa-5,8-diazaspiro[3.5]nonan-5-yl)-4-((R)-3-fluoropyrrolidin-1-yl) but-2-en-1-one]"
6,< 10,"C=CC(=O)N1CCN(c2nc(OC[C@@]34CCCN3C[C@H](F)C4)nc3c(F)c(-c4cccc5ccc(F)c(CC)c45)ncc23)CC12COC2 [Example 45, 1-(8-(7-(8-ethyl-7-fluoronaphthalen-1-yl)-8-fluoro-2-(((2R,7aS)-2-fluorotetrahydro-1H-pyrrolizin-7a(5H)-yl)methoxy)pyrido[4,3-d]pyrimidin-4-yl)-2-oxa-5,8-diazaspiro[3.5]nonan-5-yl) prop-2-en-1-one]"
7,< 10,"C#Cc1c(F)ccc2cccc(-c3ncc4c(N5CCN(C(=O)/C=C/CN6C[C@H]7C[C@@H]6CO7)C6(COC6)C5)nc(OC[C@@]56CCCN5C[C@H](F)C6)nc4c3F)c12 [Example 46, (E)-4-((1R,4R)-2-oxa-5-azabicyclo[2.2.1]heptan-5-yl)-1-(8-(7-(8-ethynyl-7-fluoronaphthalen-1-yl)-8-fluoro-2-(((2R,7aS)-2-fluorotetrahydro-1H-pyrrolizin-7a(5H)-yl)methoxy)pyrido[4,3-d]pyrimidin-4-yl)-2-oxa-5,8-diazaspiro[3.5]nonan-5-yl) but-2-en-1-one]"
8,100 to 500,"O=C(C#CCN1CC2CCC(C1)O2)N1CCN(c2nc(OC[C@@]34CCCN3C[C@H](F)C4)nc3c(F)c(-c4cccc5cccc(Cl)c45)ncc23)CC12COC2 [Example 47, 4-(8-oxa-3-azabicyclo[3.2.1]octan-3-yl)-1-(8-(7-(8-chloronaphthalen-1-yl)-8-fluoro-2-(((2R,7aS)-2-fluorotetrahydro-1H-pyrrolizin-7a(5H)-yl)methoxy)pyrido[4,3-d]pyrimidin-4-yl)-2-oxa-5,8-diazaspiro[3.5]nonan-5-yl) but-2-yn-1-one]"
9,10 to 100,"C#Cc1c(F)ccc2cccc(-c3ncc4c(N5CCN(C(=O)/C=C/c6cc(C)nc(C)n6)C6(COC6)C5)nc(OC[C@@]56CCCN5C[C@H](F)C6)nc4c3F)c12 [Example 48, (E)-3-(2,6-dimethylpyrimidin-4-yl)-1-(8-(7-(8-ethynyl-7-fluoronaphthalen-1-yl)-8-fluoro-2-(((2R,7aS)-2-fluorotetrahydro-1H-pyrrolizin-7a(5H)-yl)methoxy)pyrido[4,3-d]pyrimidin-4-yl)-2-oxa-5,8-diazaspiro[3.5]nonan-5-yl) prop-2-en-1-one]"
10,< 10,"C#Cc1c(F)ccc2cccc(-c3ncc4c(N5CCN(C(=O)/C(F)=C/c6ccnc(C)n6)C6(COC6)C5)nc(OC[C@@]56CCCN5C[C@H](F)C6)nc4c3F)c12 [Example 49, (Z)-1-(8-(7-(8-ethynyl-7-fluoronaphthalen-1-yl)-8-fluoro-2-(((2R,7aS)-2-fluorotetrahydro-1H-pyrrolizin-7a(5H)-yl)methoxy)pyrido[4,3-d]pyrimidin-4-yl)-2-oxa-5,8-diazaspiro[3.5]nonan-5-yl)-2-fluoro-3-(2-methylpyrimidin-4-yl) prop-2-en-1-one]"
11,< 10,"C#Cc1c(F)ccc2cccc(-c3ncc4c(N5CCN(C(=O)C=C)C6(COC6)C5)nc(OC[C@@]56CCCN5C[C@H](F)C6)nc4c3F)c12 [Example 50, 1-(8-(7-(8-ethynyl-7-fluoronaphthalen-1-yl)-8-fluoro-2-(((2R,7aS)-2-fluorotetrahydro-1H-pyrrolizin-7a(5H)-yl)methoxy)pyrido[4,3-d]pyrimidin-4-yl)-2-oxa-5,8-diazaspiro[3.5]nonan-5-yl) prop-2-en-1-one]"
12,10 to 100,"C=CC(=O)N1CCN(c2nc(OC[C@@]34CCCN3C[C@H](F)C4)nc3c(F)c(-c4c(Cl)c(C)cc5[nH]ncc45)ncc23)CC12COC2 [Example 51, 1-(8-(7-(5-chloro-6-methyl-1H-indazol-4-yl)-8-fluoro-2-(((2R,7aS)-2-fluorotetrahydro-1H-pyrrolizin-7a(5H)-yl)methoxy)pyrido[4,3-d]pyrimidin-4-yl)-2-oxa-5,8-diazaspiro[3.5]nonan-5-yl) prop-2-en-1-one]"
13,≥ 500,"C=CC(=O)N1CCN(c2nc(OC[C@@]34CCCN3C[C@H](F)C4)nc3c(F)c(-c4c(C)cc(F)c5[nH]ncc45)ncc23)CC12COC2 [Example 52, 1-(8-(8-fluoro-7-(7-fluoro-5-methyl-1H-indazol-4-yl)-2-(((2R,7aS)-2-fluorotetrahydro-1H-pyrrolizin-7a(5H)-yl)methoxy)pyrido[4,3-d]pyrimidin-4-yl)-2-oxa-5,8-diazaspiro[3.5]nonan-5-yl) prop-2-en-1-one]"
14,10 to 100,"C=CC(=O)N1C(C)CN(c2nc(OC[C@@]34CCCN3C[C@H](F)C4)nc3c(F)c(-c4cccc5cccc(Cl)c45)ncc23)CC12COC2 (stereo partly drawn) [Example 53, 1-(8-(7-(8-chloronaphthalen-1-yl)-8-fluoro-2-(((2R,7aS)-2-fluorotetrahydro-1H-pyrrolizin-7a(5H)-yl)methoxy)pyrido[4,3-d]pyrimidin-4-yl)-6-methyl-2-oxa-5,8-diazaspiro[3.5]nonan-5-yl) prop-2-en-1-one]"
15,< 10,"C=CC(=O)N1CCN(c2nc(OC[C@@]34CCCN3C[C@H](F)C4)nc3c(F)c(-c4cc(O)cc(Cl)c4C(F)(F)F)ncc23)CC12COC2 [Example 54, 1-(8-(7-(3-chloro-5-hydroxy-2-(trifluoromethyl)phenyl)-8-fluoro-2-(((2R,7aS)-2-fluorotetrahydro-1H-pyrrolizin-7a(5H)-yl)methoxy)pyrido[4,3-d]pyrimidin-4-yl)-2-oxa-5,8-diazaspiro[3.5]nonan-5-yl) prop-2-en-1-one]"
16,< 10,"CN(C)C/C=C/C(=O)N1CCN(c2nc(OC[C@@]34CCCN3C[C@H](F)C4)nc3c(F)c(-c4cc(O)cc(Cl)c4C4CC4)ncc23)CC12COC2 [Example 55, (E)-1-(8-(7-(3-chloro-2-cyclopropyl-5-hydroxyphenyl)-8-fluoro-2-(((2R,7aS)-2-fluorotetrahydro-1H-pyrrolizin-7a(5H)-yl)methoxy)pyrido[4,3-d]pyrimidin-4-yl)-2-oxa-5,8-diazaspiro[3.5]nonan-5-yl)-4-(dimethylamino)but-2-en-1-one]"
17,< 10,"O=C(/C=C/CN1[C@@H]2CC[C@H]1COC2)N1CCN(c2nc(OC[C@@]34CCCN3C[C@H](F)C4)nc3c(F)c(-c4cccc(Cl)c4C(F)(F)F)ncc23)CC12COC2 [Example 56, (E)-4-((1R,5S)-3-oxa-8-azabicyclo[3.2.1]octan-8-yl)-1-(8-(7-(3-chloro-2-(trifluoromethyl)phenyl)-8-fluoro-2-(((2R,7aS)-2-fluorotetrahydro-1H-pyrrolizin-7a(5H)-yl)methoxy)pyrido[4,3-d]pyrimidin-4-yl)-2-oxa-5,8-diazaspiro[3.5]nonan-5-yl) but-2-en-1-one]"
18,10 to 100,"O=C(/C=C/CN1C[C@@H]2C[C@H]1CO2)N1CCN(c2nc(OC[C@@]34CCCN3C[C@H](F)C4)nc3c(F)c(-c4cccc(Cl)c4C(F)(F)F)ncc23)CC12COC2 [Example 57, (E)-4-((1S,4S)-2-oxa-5-azabicyclo[2.2.1]heptan-5-yl)-1-(8-(7-(3-chloro-2-(trifluoromethyl)phenyl)-8-fluoro-2-(((2R,7aS)-2-fluorotetrahydro-1H-pyrrolizin-7a(5H)-yl)methoxy)pyrido[4,3-d]pyrimidin-4-yl)-2-oxa-5,8-diazaspiro[3.5]nonan-5-yl) but-2-en-1-one]"
